In ChEMBL document CHEMBL1130475 (Bioorg Med Chem Lett, 1997):

Legend:
[1] = Tested for its ability to inhibit calcineurin phosphatase activity in standard in vitro assay; NI means no inhibition at >10 uM; format: functional
[2] = biological target: FK506 binding protein 12 (Gallus gallus, UniProt Q8QGU2); test: Inhibition of binding to FKBP12 receptor
[3] = test system: T-cell; test: Tested for its ability to block T-cell proliferation in standard in vitro assay; NI means no inhibition at >10 uM; format: functional, cell-based
[4] = Ability to promote neurite outgrowth against freshly isolated sensory neuronal cultures; format: functional; details: Gallus gallus; read-out: ED50 (the source's name)

Chain of FK506 binding protein 12 (Q8QGU2 whole entry): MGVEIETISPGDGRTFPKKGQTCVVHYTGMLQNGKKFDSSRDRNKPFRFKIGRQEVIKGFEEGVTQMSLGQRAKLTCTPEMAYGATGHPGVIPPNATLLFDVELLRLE

| Activity [1] | Ki [2] | SMILES | Activity [3] | EC50 [4] |
| --- | --- | --- | --- | --- |
| No inhibition | 250 nM | CCC(C)(C)C(=O)C(=O)N1CCCCC1C(=O)OCCCc1ccccc1 (configuration not stated) | No inhibition | 300 nM |
| – | – | CC(C)(C)C(=O)C(=O)N1CCCCC1C(=O)OCCCc1ccccc1 (configuration not stated) | – | 0.085 nM |
| – | – | COc1cc(C(=O)C(=O)N2CCCCC2C(=O)OC(CCCc2ccccc2)CCCc2ccccc2)cc(OC)c1OC (configuration not stated) | – | 0.61 nM |
| – | 1300 nM | CCOC(=O)C1CCCCN1C(=O)C(=O)C(C)(C)CC (configuration not stated) | – | 5000 nM |
| – | 15 nM | CCC(C)(C)C(=O)C(=O)N1CCCCC1C(=O)OC(CCCc1ccccc1)CCc1ccc(OC)cc1 (configuration not stated) | – | 0.17 nM |
| – | – | CCC(C)(C)C(=O)C(=O)N1CCCCC1C(=O)OC(CCc1ccccc1)CCc1ccccc1 (configuration not stated) | – | 0.016 nM |
| – | 8.3 nM | CCC(C)(C)C(=O)C(=O)N1CCCCC1C(=O)OCCC(c1ccccc1)c1ccccc1 (configuration not stated) | – | 0.029 nM |
| – | 60 nM | CCC(C)(C)C(=O)C(=O)N1CCCCC1C(=O)OCCCCc1ccc(OC)cc1 (configuration not stated) | – | 43 nM |
| – | – | CCC(C)(C)C(=O)C(=O)N1CCCCC1C(=O)OC(CCCc1ccccc1)CCCc1ccccc1 (configuration not stated) | – | 5 nM |
| No inhibition | 25 nM | CCC(C)(C)C(=O)C(=O)N1CCCCC1C(=O)OCCCc1cc(OC)c(OC)c(OC)c1 (configuration not stated) | No inhibition | 80 nM |
| – | – | CC(C)(C)C(=O)C(=O)N1CCCCC1C(=O)OC(CCCc1ccccc1)CCCc1ccccc1 (configuration not stated) | – | 0.085 nM |
| – | 24 nM | COc1ccc(CCCCOC(=O)C2CCCCN2C(=O)C(=O)C(C)(C)C)cc1 (configuration not stated) | – | 0.002 nM |
| – | 3 nM | O=C(C(=O)N1CCCCC1C(=O)OC(CCCc1ccccc1)CCCc1ccccc1)c1ccccc1 (configuration not stated) | – | 0.15 nM |
| – | > 10000 nM | CCOC(=O)C1CCCCN1C(=O)C(=O)OC (configuration not stated) | – | > 10000 nM |
